# Test results reported in ChEMBL document CHEMBL1121427, “Decomposition of pharmacological activity indices into mutually independent components using principal component analysis” (J Med Chem, 1980).
# Legend:
# [1] = -Log C was determined by performing the electroshock minimum test; assay type: ADME; parameters: unit not given here
# [2] = -Log C was determined by performing the foot shock test; assay type: ADME; parameters: unit not given here
# [3] = -Log C was determined by performing the pentylenetetrazole test; assay type: ADME; parameters: unit not given here
# [4] = -Log C was determined by performing the incl screen test; assay type: ADME; parameters: unit not given here
# [5] = -Log C was determined by performing the maximum electroshock test; assay type: ADME; parameters: unit not given here
# [6] = system: Aspergillus niger; assay: The compound was evaluated for activity against Aspergillus niger; assay type: functional
# [7] = system: Trichoderma viride; assay: The compound was evaluated for activity against Trichoderma viride; assay type: functional; parameters: unit not given here
# [8] = system: Trichophyton benhamiae; assay: The compound was evaluated for activity against Trichophyton mentagrophytes; assay type: functional, Arthroderma benhamiae
# [9] = system: Aspergillus oryzae; assay: The compound was evaluated for activity against Aspergillus oryzae; assay type: functional; parameters: unit not given here
# [10] = system: Albifimbria verrucaria; assay: (§1) The compound was evaluated for activity against Myrothecium verrucaria; assay type: functional; parameters: unit not given here
# [11] = system: Bacillus subtilis; assay: Inhibitory activity against Bacillus subtilis; assay type: functional; parameters: unit not given here
# [12] = system: Staphylococcus aureus; assay: The compound was evaluated for activity against strain Micrococcus aureus; assay type: functional; parameters: unit not given here
# [13] = system: Streptococcus pyogenes; assay: The compound was evaluated for activity against strain Streptococcus hemolyticus; assay type: functional; parameters: unit not given here
# [14] = system: Enterococcus faecalis; assay: The compound was evaluated for activity against strain Streptococcus faecalis; assay type: functional; parameters: unit not given here
# [15] = system: Albifimbria verrucaria; assay: as §1; assay type: functional
SMILES,-Log C [6] [mM l-1],-Log C [7],-Log C [8] [mM l-1],-Log C [9],-Log C [10],other results
CN(C)c1ccc2c(c1)C(c1ccccc1)=NCC(=O)N2C,,,,,,-Log C [1]: 0.06; -Log C [2]: 0.87; -Log C [3]: 1.7; -Log C [4]: 0.29; -Log C [5]: 0.5
O=[N+]([O-])c1cc(I)c2cccnc2c1O,0.7,0.89,1.89,0.57,0.6,
O=[N+]([O-])c1cc(F)c2cccnc2c1O,1.06,1.06,1.72,0.85,1.02,
Oc1c(Br)cc(Cl)c2cccnc12,1.92,,2.11,,,
O=[N+]([O-])c1cc(Cl)c(O)c2ncccc12,0.89,,2.35,,,
Oc1c(F)cc(F)c2cccnc12,1.36,,1.66,,,
CC(C)(C)N1C(=O)CN=C(c2ccccc2)c2cc(Cl)ccc21,,,,,,-Log C [1]: 0.39; -Log C [2]: 0.51; -Log C [3]: 0.39; -Log C [4]: 0.19; -Log C [5]: 0.26
O=[N+]([O-])c1cc(Br)c(O)c2ncccc12,1.01,1.32,2.43,0.66,1.72,
Oc1c(Cl)ccc2cccnc12,1.77,,2.25,,,
Oc1c(Br)ccc2cccnc12,1.89,2.35,2.35,1.89,2.35,
Oc1c(Cl)cc(F)c2cccnc12,1.82,2.29,2.3,1.7,2.29,
Oc1c(F)cc(I)c2cccnc12,2,2,2.46,1.46,2.46,
Nc1cc(Br)c2cccnc2c1O,0.57,0.92,1.6,0.68,0.96,
Oc1c(F)cc(Cl)c2cccnc12,2,2.29,2.3,1.7,2.29,
COC1/C=C/OC2(C)Oc3c(C)c(O)c4c(O)c(cc(OCC(=O)N5CCCCC5C)c4c3C2=O)NC(=O)/C(C)=C\C=C\C(C)C(O)C(C)C(O)C(C)C(OC(C)=O)C1C (stereo not given),,,,,,-Log C [11]: 6.67; -Log C [12]: 8.22; -Log C [13]: 7.92; -Log C [14]: 7.45
O=[N+]([O-])c1cc(Br)c2cccnc2c1O,0.62,1.13,2.43,0.66,1.13,
Oc1c(Cl)cc(Br)c2cccnc12,2.11,2.41,2.41,1.82,2.41,
Oc1c(F)cc(Br)c2cccnc12,1.92,1.92,2.39,1.62,2.39,
Oc1c(F)ccc2cccnc12,1.32,,1.92,,,-Log C [15]: 1.75 mM l-1
Nc1cc(I)c2cccnc2c1O,1.15,1.21,2.21,1.03,1.51,
CCN(CCO)C(=O)COc1cc2c(O)c3c(O)c(C)c4c(c13)C(=O)C(C)(O/C=C/C(OC)C(C)C(OC(C)=O)C(C)C(O)C(C)C(O)C(C)/C=C/C=C(/C)C(=O)N2)O4 (stereo not given),,,,,,-Log C [11]: 5.73; -Log C [12]: 7.52; -Log C [13]: 6.96; -Log C [14]: 6.18

SMILES,-Log C [6] [mM l-1],-Log C [7],-Log C [8] [mM l-1],-Log C [9],-Log C [10],other results
Oc1c(I)cc(F)c2cccnc12,2,2.46,2.46,2.62,1.16,
Oc1c(Br)cc(I)c2cccnc12,2.07,2.24,2.24,1.85,2.24,
CN1C(=O)CN=C(c2ccccc2)c2cc(C#N)ccc21,,,,,,-Log C [1]: 0.14; -Log C [2]: 1.74; -Log C [3]: 2.36; -Log C [4]: 1.14; -Log C [5]: 1.29
COc1ccccc1C1=NCC(=O)Nc2ccc(Cl)cc21,,,,,,-Log C [1]: 0.35; -Log C [2]: 0.48; -Log C [3]: 1.6; -Log C [4]: 0; -Log C [5]: 1
Cc1ccccc1C1=NCC(=O)Nc2ccc(Cl)cc21,,,,,,-Log C [1]: 0.19; -Log C [2]: 0.45; -Log C [3]: 1.57; -Log C [4]: 0.28; -Log C [5]: 1.13
CCN1C(=O)CN=C(c2ccccc2)c2cc(Cl)ccc21,,,,,,-Log C [1]: 0.3; -Log C [2]: 1.17; -Log C [3]: 1.87; -Log C [4]: 0.6; -Log C [5]: 1.56
O=[N+]([O-])c1cc(Cl)c2cccnc2c1O,1.15,,1.89,,,
Cc1ccc2c(c1)C(c1ccccc1)=NCC(=O)N2,,,,,,-Log C [1]: 0.51; -Log C [2]: 0.4; -Log C [3]: 1.55; -Log C [4]: 0.4; -Log C [5]: 1.75
O=[N+]([O-])c1ccc2cccnc2c1O,0.48,1.28,1.8,0.28,1.13,
O=[N+]([O-])c1cc(F)c(O)c2ncccc12,0.44,1.32,2.32,0.68,1.21,
COC1/C=C/OC2(C)Oc3c(C)c(O)c4c(O)c(cc(OCC(=O)N5CCCCCC5)c4c3C2=O)NC(=O)/C(C)=C\C=C\C(C)C(O)C(C)C(O)C(C)C(OC(C)=O)C1C (stereo not given),,,,,,-Log C [11]: 6.45; -Log C [12]: 8.32; -Log C [13]: 7.92; -Log C [14]: 7.45
Oc1c(I)cc(Br)c2cccnc12,2.07,1.96,2.24,1.24,2.24,
Oc1c(Br)cc(F)c2cccnc12,1.92,2.39,2.39,1.67,2.39,
N#Cc1ccc2c(c1)C(c1ccccc1)=NCC(=O)N2,,,,,,-Log C [1]: 0.41; -Log C [2]: 0.82; -Log C [3]: 2.3; -Log C [4]: 0.54; -Log C [5]: 0.89
Oc1c(I)ccc2cccnc12,2.13,2.43,2.43,1.48,2.43,
CCCCN(CCCC)C(=O)COc1cc2c(O)c3c(O)c(C)c4c(c13)C(=O)C(C)(O/C=C/C(OC)C(C)C(OC(C)=O)C(C)C(O)C(C)C(O)C(C)/C=C/C=C(/C)C(=O)N2)O4 (stereo not given),,,,,,-Log C [11]: 7.16; -Log C [12]: 8.46; -Log C [13]: 7.86; -Log C [14]: 7.46
C#CCN(CCC)C(=O)COc1cc2c(O)c3c(O)c(C)c4c(c13)C(=O)C(C)(O/C=C/C(OC)C(C)C(OC(C)=O)C(C)C(O)C(C)C(O)C(C)/C=C/C=C(/C)C(=O)N2)O4 (stereo not given),,,,,,-Log C [11]: 6.97; -Log C [12]: 8.44; -Log C [13]: 8.62; -Log C [14]: 7.14
CN(C)c1ccc2c(c1)C(c1ccccc1)=NCC(=O)N2,,,,,,-Log C [1]: 0.38; -Log C [2]: 0.45; -Log C [3]: 0.82; -Log C [4]: 0.25; -Log C [5]: 0.12
Oc1c(I)cc(Cl)c2cccnc12 [CLIOQUINOL],2.01,,2.01,,,
O=C1CN=C(c2ccccc2)c2cc(C(F)(F)F)ccc2N1 [RO-052904],,,,,,-Log C [1]: 1.16; -Log C [2]: 1.48; -Log C [3]: 2.48; -Log C [4]: 1.48; -Log C [5]: 1.78
